As usually defined, the melting point is the temperature of the solid-liquid transition. For orientation: inhibition means the drop in the measured response relative to a control, in per cent.

For 29 compounds, melting point and inhibition results are on record in patent US6838476B1, “Imidazoles with anti-inflammatory activity” (J. Uriach & Cia, SA, priority 1998, dated 2005).

For one series, the target named is T1, cyclooxygenase-1 (COX-1) (Homo sapiens, UniProt P23219).
T1 construct: from tissue; host or cells: heparinized human whole blood
T1 sequence (P23219 24-599): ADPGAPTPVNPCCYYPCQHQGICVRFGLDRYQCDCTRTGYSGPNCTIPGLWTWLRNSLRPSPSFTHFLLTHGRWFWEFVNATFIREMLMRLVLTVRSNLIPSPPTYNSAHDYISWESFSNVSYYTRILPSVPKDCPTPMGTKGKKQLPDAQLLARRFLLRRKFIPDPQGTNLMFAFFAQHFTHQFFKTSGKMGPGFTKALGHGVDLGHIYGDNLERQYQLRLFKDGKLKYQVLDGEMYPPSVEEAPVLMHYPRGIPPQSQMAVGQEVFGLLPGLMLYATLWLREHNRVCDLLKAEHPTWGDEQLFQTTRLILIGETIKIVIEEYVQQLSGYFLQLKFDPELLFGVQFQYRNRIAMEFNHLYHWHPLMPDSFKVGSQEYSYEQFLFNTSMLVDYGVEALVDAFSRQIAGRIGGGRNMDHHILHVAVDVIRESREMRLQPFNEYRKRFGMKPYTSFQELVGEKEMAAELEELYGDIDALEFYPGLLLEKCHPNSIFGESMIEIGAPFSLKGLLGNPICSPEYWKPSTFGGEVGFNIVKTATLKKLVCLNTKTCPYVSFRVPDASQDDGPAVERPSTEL
Kind of series: Inhibition of cyclooxygenase-1 (COX-1) activity in human blood (thromboxane B2 levels after ionophore A23187). It counts as cell-based. As to conditions: read-out: % inhibition COX-1 (10 μM), 10 μM test compound. The protocol: (§1) Inhibition of cyclooxgenase-1 (COX-1) and cyclooxygenase-2 (COX-2) Activity in Human Blood
Heparinized human blood from healthy volunteers who had not taken non-steroidal anti-inflammatory drugs (NSAIDs) for a week, and neither alcohol nor xanthines 24 h before blood collection, is used. Blood is divided into two groups; one will be used to determine COX-1 activity and the other one for COX-2. The procedure to follow will be different in each case.
For COX-1, 12-mL tubes are used. 5 μL of the test compound (in DMSO solution; in duplicate) are placed in each tube. Aditionally two tubes for blanks and two tubes for controls containing 5 μL of DMSO are used. Next, 1 mL of blood is added to each tube and they are stirred. The tubes are placed in a thermostatized bath at 37° C. for 5 h. Then, 5 μL of 5 mM ionophore A23187 is added to each tube, except to the blanks, and tubes are incubated for 30 min more at 37° C. After this time, the tubes are placed in ice and 100 μL of a 100 mM EGTA solution is added to stop the reaction. 2.5 mL of methanol is added to each tube to reach a final concentration of 70%. The tubes are stirred and frozen at −70° C. till their use. The COX-1 activity is determined by measuring thromboxane B2 levels in the samples. Blood is defrozen and centrifuged at 2000 g for 10 min at 4° C. 1 mL of supematant is evaporated under nitrogen to dryness. The solid residue thus obtained is resuspended in 1 mL of saline and the thromboxane B2 levels in these samples are determined using a kit (Kit Thromboxane B2, Biotrak EIA system RPN220 Amershan), according to the manufacturer's instructions.

In the next series the target is T2, cyclooxygenase-2 (COX-2) (Homo sapiens, UniProt P35354).
T2 construct: 5 μL of LPS is also added (in order to induce COX-2 activy); from tissue; host or cells: heparinized human whole blood, LPS-stimulated, with aspirin added
T2 sequence (P35354 18-604): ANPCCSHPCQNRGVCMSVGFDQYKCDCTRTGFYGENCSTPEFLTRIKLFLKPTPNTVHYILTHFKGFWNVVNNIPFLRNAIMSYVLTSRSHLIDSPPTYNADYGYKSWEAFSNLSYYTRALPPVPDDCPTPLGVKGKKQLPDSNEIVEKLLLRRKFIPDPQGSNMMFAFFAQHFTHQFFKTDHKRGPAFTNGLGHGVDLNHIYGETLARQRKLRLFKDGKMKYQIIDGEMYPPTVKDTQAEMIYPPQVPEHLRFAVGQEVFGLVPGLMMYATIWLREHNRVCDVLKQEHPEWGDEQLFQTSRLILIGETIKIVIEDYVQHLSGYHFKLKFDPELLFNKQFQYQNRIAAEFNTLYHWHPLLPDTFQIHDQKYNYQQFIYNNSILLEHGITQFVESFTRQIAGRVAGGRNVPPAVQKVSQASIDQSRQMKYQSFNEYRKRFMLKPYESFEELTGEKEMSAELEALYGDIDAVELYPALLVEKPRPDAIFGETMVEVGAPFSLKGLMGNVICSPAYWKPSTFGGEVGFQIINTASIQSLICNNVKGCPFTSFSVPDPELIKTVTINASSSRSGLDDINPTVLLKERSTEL
Briefly: Inhibition of cyclooxygenase-2 (COX-2) activity in human blood (prostaglandin E2 levels after LPS, aspirin added). In kind it is cell-based. Particulars: for inhibition at 10 µM: read-out: % inhibition COX-2 (10 μM), 10 μM test compound; for inhibition at 1 µM: read-out: % inhibition COX-2 (1 μM), 1 μM test compound. Here is the method:
as §1
Blood is divided into two groups; one will be used to determine COX-1 activity and the other one for COX-2. The procedure to follow will be different in each case.
For COX-2, 3-mL tubes are prepared in duplicate containing 5 μL of the test compound (solution in DMSO) and 5 μL of vehicle in the case of blanks and controls. To each tube, 5 μL of a 2 mg/mL solution of aspirin in DMSO is also added (in order to inhibit COX-1 activity), and to all tubes except the blanks 5 μL of LPS is also added (in order to induce COX-2 activy). Finally, 1 mL of heparinized blood is added to each tube, and tubes are then stirred and placed in a thermostatized bath at 37° C. for 24 h. Then, tubes are centrifuged at 2000 g for 10 min at 4° C., the resulting plasma is collected and is frozen at −70° C. until use. COX-2 activity is determined by measuring prostaglandin E2 levels in the samples. The plasma stored at −70° C. is defrozen and prostaglandin E2 levels in these samples are determined using a kit (Kit Prostaglandin E2, Biotrak EIA system RPN222 Amershan), according to the manufacturer's instructions.

Structures can show the parent of a compound that is named as a salt.

`Cc1ccc(-c2c(Cl)ncn2-c2ccc(S(C)(=O)=O)cc2)cc1Cl` (as salt: HCl) [4(13), 4-Chloro-5-(3-chloro-4-methylphenyl)-1-(4-methylsulfonylphenyl)-imidazole]: the melting point is 181 to 182 °C.

`COCc1cccc(-c2c(Cl)ncn2-c2ccc(S(C)(=O)=O)cc2)c1` (as salt: HCl) [4(14), 4-Chloro-5-(3-methoxymethylphenyl)-1-(4-methylsulfonylphenyl)-imidazole]: the melting point was found to be 178 °C.

On to `CS(=O)(=O)c1ccc(-n2cnc(Cl)c2-c2ccc(Cl)nc2)cc1` (as salt: HCl) [4(16), 4-Chloro-5-(6-chloro-3-pyridyl)-1-(4-methylsulfonylphenyl)imidazole], for which the melting point worked out at 223 °C.

In the case of `Cc1ccc(-c2c(Cl)ncn2-c2ccc(S(C)(=O)=O)cc2)cc1` [4(1), 4-Chloro-5-(4-methylphenyl)-1-(4-methylsulfonylphenyl)imidazole], the inhibition at 10 µM worked out at 34% on cyclooxygenase-1 (COX-1) and 100% at cyclooxygenase-2 (COX-2).

`CS(=O)(=O)c1ccc(-n2cnc(Cl)c2-c2ccccc2)cc1` [4(3), 4-Chloro-1-(4-methylsulfonylphenyl)-5-phenylimidazole]: the inhibition at 10 µM worked out at 47.9% at cyclooxygenase-1 (COX-1) and 96% on cyclooxygenase-2 (COX-2). Besides, the inhibition at 1 µM on cyclooxygenase-2 (COX-2) is 82.6%.

For the compound `CS(=O)(=O)c1ccc(-n2cnc(Cl)c2-c2ccc(Cl)c(Cl)c2)cc1` [4(4), 4-Chloro-5-(3,4-dichlorophenyl)-1(4-methylsulfonylphenyl)imidazole], the melting point was 156 to 157 °C.

Turning to `Cc1ccc(-c2c(Cl)ncn2-c2ccc(S(C)(=O)=O)cc2)cc1F` [4(8), 4-Chloro-5-(3-fluoro-4-methylphenyl)-1-(4-methylsulfonylphenyl)-imidazole], the inhibition at 10 µM on cyclooxygenase-1 (COX-1) amounted to 47.5%. Also, on cyclooxygenase-2 (COX-2), the inhibition at 1 µM was found to be 75.1% and the inhibition at 10 µM turned out to be 100%.

`Cc1ccc(-c2c(Cl)ncn2-c2ccc(S(C)(=O)=O)cc2)cn1` [4(11), 4-Chloro-5-(6-methyl-3-pyridyl)-1-(4-methylsulfonylphenyl)imidazole]: on cyclooxygenase-1 (COX-1), the inhibition at 10 µM worked out at 39.7%. Also, at cyclooxygenase-2 (COX-2), the inhibition at 1 µM worked out at 58.4% and the inhibition at 10 µM amounted to 100%.

With `CS(=O)(=O)c1ccc(-n2cnc(Cl)c2-c2ccc(Cl)nc2)cc1` [4(16), 4-Chloro-5-(6-chloro-3-pyridyl)-1-(4-methylsulfonylphenyl)imidazole], the inhibition at 10 µM at cyclooxygenase-1 (COX-1) was found to be 42.5%; at cyclooxygenase-2 (COX-2) it was 100%.

`CS(=O)(=O)c1ccc(-n2cnc(Cl)c2-c2cnc(Cl)c(Cl)c2)cc1` [4(19), 4-Chloro-5-(5,6-dichloro-3-pyridyl)-1-(4-methylsulfonylphenyl)imidazole] yielded a melting point of 223 to 230 °C.

`NS(=O)(=O)c1ccc(-n2cnc(Cl)c2-c2ccc(Cl)c(Cl)c2)cc1` [13(2), 4-[4-Chloro-5-(3,4-dichlorophenyl)imidazol-1-yl]benzenesulfonamide] had a melting point of 251 °C.

`Cc1ccc(-c2cncn2-c2ccc(S(C)(=O)=O)cc2)cc1` [Example 1(1), 5-(4-Methylphenyl)-1-(4-methylsulfonylphenyl)imidazole]: the melting point came out at 156 °C.

As for `CS(=O)(=O)c1ccc(-n2cncc2-c2ccc(F)cc2F)cc1` [Example 1(2), 5-(2,4-Difluorophenyl)-1-(4-methylsulfonylphenyl)imidazole], the melting point amounted to 119 °C.

For the compound `CS(=O)(=O)c1ccc(-n2cncc2-c2ccccc2)cc1` [Example 1(3), 1-(4-Methylsulfonylphenyl)-5-phenylimidazole], the melting point turned out to be 164 °C.

Consider `COc1ccc(-c2cncn2-c2ccc(S(C)(=O)=O)cc2)cc1` [Example 1(5), 5-(4-Methoxyphenyl)-1-(4-methylsulfonylphenyl)imidazole], for which the melting point was in the range of 185 to 187 °C.

The compound `Cc1ccc(-c2cncn2-c2ccc(S(C)(=O)=O)cc2)cc1F` [Example 1(8), 5-(3-Fluoro-4-methylphenyl)-1-(4-methylsulfonylphenyl)imidazole] returned a melting point of 147 °C.

Consider `CS(=O)(=O)c1ccc(-n2cncc2-c2ccccc2F)cc1` [Example 1(9), 5-(2-Fluorophenyl)-1(4-methylsulfonylphenyl)imidazole], for which the melting point is 188 to 189 °C.

For the compound `CS(=O)(=O)c1ccc(-n2cncc2-c2ccc(OC(F)(F)F)cc2)cc1` [Example 1(10), 1-(4-Methylsulfonylphenyl)-5-(4-trifluoromethoxyphenyl)imidazole], the melting point was in the range of 141 to 142 °C.

In turn, `COc1cc(-c2cncn2-c2ccc(S(C)(=O)=O)cc2)ccc1C` [Example 1(14), 5-(3-Methoxy-4-methylphenyl)-1(4-methylsulfonylphenyl)imidazole] gave a melting point of 174 to 175 °C.

Compound `CS(=O)(=O)c1ccc(-n2cncc2-c2ccc(Cl)cc2)cc1` [Example 1(15), 5-(4-Chlorophenyl)-1-(4-methylsulfonylphenyl)imidazole] came in with a melting point of 192 to 193 °C.

In turn, `CS(=O)(=O)c1ccc(-n2cncc2-c2ccc(Cl)nc2)cc1` [Example 1(16), 5-(6-Chloro-3-pyridyl)-1-(4-methylsulfonylphenyl)imidazole] displayed a melting point of 191 to 192 °C.

For the compound `COc1ccc(-c2cncn2-c2ccc(S(C)(=O)=O)cc2)c(Cl)n1` [Example 1(18), 5-(2-Chloro-6-methoxy-3-pyridyl)-1-(4-methylsulfonylphenyl)imidazole], the melting point lay in the range of 192 to 198 °C.

In turn, `CS(=O)(=O)c1ccc(-n2cncc2-c2cnc(Cl)c(Cl)c2)cc1` [Example 1(19), 5-(5,6-Dichloro-3-pyridyl)-1-(4-methylsulfonylphenyl)imidazole] returned a melting point of 192 to 198 °C.

Regarding `CCCOc1ccc(-c2cncn2-c2ccc(S(C)(=O)=O)cc2)cc1` [Example 1(20), 1-(4-Methylsulfonylphenyl)-5-(4-propoxyphenyl)imidazole], the melting point lay within 167 to 169 °C.

Turning to `CCOc1cc(OCC)cc(-c2cncn2-c2ccc(S(C)(=O)=O)cc2)c1` [Example 1(21), 5-(3,5-Diethoxyphenyl)-1-(4-methylsulfonylphenyl)imidazole], the melting point is 100 to 101 °C.

`CSc1ccc(-c2cncn2-c2ccc(S(C)(=O)=O)cc2)cc1` [Example 1(24), 5-(4-Methylsulfanylphenyl)-1-(4-methylsulfonylphenyl)imidazole] returned a melting point of 153 to 155 °C.

In the case of `CS(=O)(=O)c1ccc(-c2cnc(Cl)n2-c2ccccc2)cc1` [Example 11, 2-Chloro-5-(4-methylsulfonylphenyl)-1-phenylimidazole], the melting point was 185 to 193 °C.

In the case of `NS(=O)(=O)c1ccc(-n2cncc2-c2ccc(F)cc2)cc1` [Example 14, 4-[5-(4-Fluorophenyl)imidazol-1-yl]benzenesulfonamide], the melting point is 196 to 197 °C.

Consider `CC(=O)Nc1ccc(-c2[nH]c(-c3ccc(S(C)(=O)=O)cc3)nc2Cl)cc1` [Example 18, 5-(4-Acetylaminophenyl)-4-chloro-(4-methylsulfonylphenyl)imidazole], for which the melting point was 238 to 241 °C.
